This note sets out measurements from US9028855B2, “Plant additives and uses thereof to modulate the synthesis of membrane glycerolipids in planta” (Commissariat a l'Energie Atomique et aux Energies …, priority 2009, dated 2015).

For one assay, the system named is iron transporter IRT1. Nature of the assay: IRT1::GUS, follow-up of the expression of the gene encoding the iron transporter IRT1 (GUS staining). In kind it is in vivo, A. thaliana. The following applies: compound added to the cultivation medium; MC2 5 μM, FIG. 13. How it is done: pIRT1:GUS cells were obtained as described by Vert et al. (Vert et al., 2002) and carry a irt1 promoter-GUS fusion. […] Plants were examined for GUS activity by dipping the samples in a GUS staining solution (50 mM sodium phosphate buffer pH 7.0; 0.01% Triton X-100, 1 mM K3Fe(CN)6, 1 mM K4Fe(CN)6, 1 mg/ml 5-dromo-4-chloro-3-indolyl (3-D-GLUCURONIDE (X-Gluc A) and incubated at 37° C. over-night. After staining, the plants were fixed 2 hours in 50 mM sodium phosphate buffer pH 7.0; 1% glutaraldehyde; 4% formaldehyde.

A further assay has as its system Cyclin B1. Nature of the assay: CycB1::GUS, follow-up of the expression of the gene encoding Cyclin B1 (meristematic activity marker). In kind it is in vivo, A. thaliana. The following applies: high phosphate medium + MC2 5 μM, FIG. 6. An excerpt: pCycB1;1:GUS cell line is as described by Colón-Carmona et al. (Colon-Carmona et al., 1999), and expresses the GUS reporter under the control of the promoter of the cyclin B1 gene. […] In response to phosphate deficiency, CycB1 is less expressed. Suprisingly, in response to MC2, the meristematic activity is not reduced (FIG. 6). Thus, it can be concludes that the primary root growth inhibition observed in response to the molecule is not due to inhibition of the meristematic activity.

A further assay relates to PHT1;4. Nature of the assay: Chemical genetic screen, pPHT1;4::GUS line (GUS activity in root tip). In kind it is in vivo, A. thaliana. The following applies: plant grown on high phosphate medium (500 μM), FIG. 2. Here is the method: pPHT1;4::GUS (DCJ 10) cell line is as described by Misson et al. (Misson et al., 2004). This cell line expresses the GUS reporter under the control of the promoter of the pht1;4 gene.
(§1) Plants were examined for GUS activity by dipping the samples in a GUS staining solution (50 mM sodium phosphate buffer pH 7.0; 0.01% Triton X-100, 1 mM K3Fe(CN)6, 1 mM K4Fe(CN)6, 1 mg/ml 5-dromo-4-chloro-3-indolyl (3-D-GLUCURONIDE (X-Gluc A) and incubated at 37° C. over-night. After staining, the plants were fixed 2 hours in 50 mM sodium phosphate buffer pH 7.0; 1% glutaraldehyde; 4% formaldehyde.
Chemical genetic screen was based on PHT1;4 expression using the line pPHT1;4::GUS (Misson et al., 2004). […] The formula of MC2 is the following: […]

Assay [1] concerns wild type seedlings. Nature of the assay: Starch accumulation (Lugol/iodine staining). The following applies: MC2 5 μM; same response as phosphate deficiency (starch strongly accumulated), FIG. 7. The class given is in vivo, A. thaliana. How it is done: Leaves were immersed in ethanol (96%) for 6 h to remove pigment and stained with Lugol solution (Fluka) for 30 min to make the starch granules visible.

A further assay concerns Medicago truncatula. Briefly: Root growth of Medicago truncatula in phosphate deficient medium. In kind it is in vivo. The following applies: phosphate 10 μM, MC2 5 μM, 10 days, FIG. 14. How it is done:
Medicago truncatula seeds were surface-sterilized as follow: soaking in concentrated sulphuric acid for 10 min, rinsing three times with sterile distilled water, soaking in 10% bleach/0.1% Tween 20 solution for 10 min with gentle agitation and finally by rinsing seeds three times with sterile distilled water. Seeds were germinated 48 h in dark. […] In the phosphate (Pi) deficient medium, NaCl (0.5 mM) was used to replace the equivalent amount of sodium provided by NaH2PO4.). Plants were maintained 10 days under a 14 h light/10 h 150 μm^−2s^−1 dark regime with a temperature of 22/18° C. for light/dark phases in a phytotron.

Assay [2] has as its system wild type seedlings. Nature of the assay: Anthocyanins content (spectrophotometric). In kind it is in vivo, A. thaliana. More on the design: key to Antho: anthocyanin content as A530 - 2.2*A652. Here is the method:
Anthocyanins were extracted with propanol:HCl:H2O (81:1:18) for 5 min at room temperature and 3 min at 100° C. Samples are centrifuged for 10 min at 4° C. Supernatants were collected and absorption measured at 530 nm and […]. Anthocyanin content was calculated as A530-2.2A652 (Lange et al., 1971).

The next assay relates to wild-type seedlings. Briefly: Free cellular Pi content (malachite green method). In kind it is in vivo, A. thaliana. The following applies: high phosphate medium + MC2 5 μM vs control condition, FIG. 3. How it is done: Three replicates were performed for each experiment. After 5 min of centrifugation, the supernatant was recovered. Phosphate content was measured using the malachite green method as described (Delhaize and Randall, 1995). One hundred and fifty microliters of molybdate solution (17.55 g/l (NH4)6Mo7, 4H2O, 2M H2SO4) were added to the sample (50 μl) diluted in water (700 μl). Ten minutes later, 150 μl of green malachite solution (3.5 g/l polyvinylic alcohol, 0.35 g/l malachite green) were then added. Measurements were carried out at 610 nm after 2 h. Concentrations were calculated using a calibration curve (performed with aKH2PO4 solution) and expressed per fresh weight. To evaluate if this expression interferes with phosphate content, phosphate content was analyzed in different conditions: high phosphate medium (+Pi), low phosphate medium (−Pi) and high phosphate medium+MC2, 5 μM (+Pi, +MC2 5 μM). […] This phosphate accumulation can be easily explained by the overexpression of the phosphate transporter.

A further assay deals with Acid phosphatase. Briefly: Acid phosphatase activity in root extract (spectrophotometric). In kind it is in vivo. As to conditions: 10 days old plants, high phosphate medium + 5 μM MC2, FIG. 4. How it is done: FIG. 4: Acid phosphatase activity was assayed spectrophotometrically in root extract from 10 days old plants grown in high phosphate medium, in low phosphate medium or in high phosphate medium supplied with 5 μM of MC2. Values represent the mean of 3 experiments±SD.
In response to phosphate deficiency, plants are able to secrete phosphatase in soil in order to remobilize phosphate from soil.

For assay [3], the system named is phosphate transporter PHT1;4. Nature of the assay: 8′G::GUS, follow-up of the expression of the phosphate transporter PHT1;4 (GUS staining). In kind it is in vivo, A. thaliana. As to conditions: compound added to the cultivation medium.
Description: 8′G cell line was obtained as follows: for the PHT1;4 promoter fusion, a 2 kb region upstream of the ORF of PHT1;4 was cloned in the vector pENTR/D-TOPO (pENTRT™/D-TOPO® Cloning Kit, ref. K2400-20, Invitrogen) and transferred to pKGWFS7 (Karimi et al., 2002) by recombination using Gateway BP (Gateway® BP Clonase® enzyme mix, ref. 11789-013, Invitrogen) and LR Clonase enzyme mixes (LR Clonase® II Plus enzyme, ref. 12538-120, Invitrogen), respectively, to produce the pPHT1;4:GUS-GFP gene fusion. This fusion was then introduced into the Arabidopsis genome via the Agrobacterium-mediated transformation system (Logemann et al., 2006).
as §1

As for `Cc1cccc(NC=C2C(=O)CC(C)(C)CC2=O)n1` [MC2], the “IRT1 expression (in words)” value with iron transporter IRT1 is reported as “inhibits IRT1 expression”. Further, the “meristematic activity (CycB1 expression, in words)” value in the assay with Cyclin B1 was “not reduced”. Also, in the assay with PHT1;4, the “expression of PHT1;4 (pPHT1;4::GUS)” value was “induce the expression of PHT1;4”. In addition, the “starch accumulation (in words)” value in the assay with wild type seedlings [1] is “same response”. Besides, in the assay on Medicago truncatula, the “growth of roots in a Pi deficient medium” value is “improved”. For the same compound, the “anthocyanins accumulation (in words)” value in the assay with wild type seedlings [2] (MC2 5 μM, FIG. 8) was “strong accumulation”. This compound had an Antho in the assay with wild type seedlings [2] (accumulation of anthocyanes, +P control 46, −P 1008) of 454. Also, in the assay with wild-type seedlings, the “phosphate accumulation in leaves” value was “two times more” and the “phosphate accumulation in roots” value is “two times more”. Besides, the phosphatase activity entry with Acid phosphatase is “inducing phosphatase activity”. In addition, the “PHT1;4 expression (in words, summary of analogues)” value in assay [3] is recorded as “induce expression of the Pht1;4 gene”.
